US6352703B1, “Compositions and methods for detecting and killing termites” (Board of Supervisors of Louisiana State University and …, priority 1997, dated 2002)

Experiments:
[1] = tested on: C. formosanus; conditions: in vivo
[2] = tested on: Mucor spp. fungus; assay: Antifungal filter paper disk test, trial 3 (cornmeal agar, sealed plates, increased rates); type: cell-based
Experimental: A second trial was conducted with filter papers treated with naphthalene, BHT, or 2,6-di-t-butyl-4-methyl-phenol (“DBP”). A fungal suspension was prepared as in the first trial. Spore concentrations were determined with a counting chamber (Petroff-Hauser, Hauser Scientific Partnership, Horsham, Pa.). Concentrations were adjusted to approximately 10^7 spores/mL. In the first trial fungus grew on SDA quickly, forming a thick mat that soon filled the entire petri dish. […] A thin layer of the spore suspension was spread over the surface of each of 24 cornmeal agar plates using a turntable and bent glass rod, as previously described.
Filter paper disks were treated with naphthalene, BHT, or DBP at rates of 2 μg, 20 μg, or 200 μg, prepared as in the first trial. On each plate were placed four filter paper disks spaced equidistant from one another (one disk containing each of the three application rates of one of the test compounds, and one disk containing only the hexane control). Each plate was then covered and sealed with parafilm to reduce the release of volatile compounds. The concentration of naphthalene in the headspace was 0.04 μg/cm^3; except in trial 3 below, in which the concentration was 34.6 μg/cm^3, about 700 times the concentration we have observed in termite nest materials. […] The experiment was then repeated, increasing the rates of naphthalene, BHT, and DBP to 200 μg, 600 μg, and 1000 μg (trial 3).
(§1) Fungal growth on each filter paper disk was recorded by making tracings of the disks, inking in areas with visible fungal growth. The fraction of each disk covered by fungus was measured by making photocopy enlargements of these drawings, cutting out the enlarged disks, weighing the entire circle, cutting out the inked areas of the circle (corresponding to fungal growth), and weighing the latter. The fraction of each circle covered with fungus was then calculated as the ratio of these weights. (The weight of the photocopy toner was negligible.)
(§2) Coverage of filter paper disks was analyzed by the ANOVA procedure (SAS Institute, Version 6.11, Cary, N.C.). Tukey's Studentized Range (HSD) Test was used for comparison of mean separations (α=0.05).

[3] = tested on: Mucor spp. fungus; assay: Antifungal filter paper disk test, trial 2 (cornmeal agar, sealed plates); type: cell-based
Experimental: A second trial was conducted with filter papers treated with naphthalene, BHT, or 2,6-di-t-butyl-4-methyl-phenol (“DBP”). A fungal suspension was prepared as in the first trial. Spore concentrations were determined with a counting chamber (Petroff-Hauser, Hauser Scientific Partnership, Horsham, Pa.). Concentrations were adjusted to approximately 10^7 spores/mL. In the first trial fungus grew on SDA quickly, forming a thick mat that soon filled the entire petri dish. Therefore, in the second trial cornmeal agar (CMA, Difco Laboratories, Detroit, Mich.) was used to slow the growth of the fungus during the six-day observation period. A thin layer of the spore suspension was spread over the surface of each of 24 cornmeal agar plates using a turntable and bent glass rod, as previously described.
Filter paper disks were treated with naphthalene, BHT, or DBP at rates of 2 μg, 20 μg, or 200 μg, prepared as in the first trial. On each plate were placed four filter paper disks spaced equidistant from one another (one disk containing each of the three application rates of one of the test compounds, and one disk containing only the hexane control). Each plate was then covered and sealed with parafilm to reduce the release of volatile compounds. The concentration of naphthalene in the headspace was 0.04 μg/cm^3; except in trial 3 below, in which the concentration was 34.6 μg/cm^3, about 700 times the concentration we have observed in termite nest materials. The growth of fungus on and around each filter paper disk was recorded three, four, and five days after treatment. The experiment was then repeated, increasing the rates of naphthalene, BHT, and DBP to 200 μg, 600 μg, and 1000 μg (trial 3).
as §1, §2

[4] = tested on: Mucor spp. fungus; assay: Antifungal filter paper disk test, trial 1 (Sabouraud dextrose agar); type: cell-based
Experimental: Mucor was isolated from a Formosan termite nest in our laboratory, a nest originally collected from a cottonwood tree in New Orleans, La. The fungus comprised a white mat that covered large areas of the nest that had been exposed to air and water. Fungus was scraped from the nest and suspended in distilled, de-ionized water with a Pasteur pipette. This suspension was streaked on Sabouraud dextrose agar (“SDA”) (Difco Laboratories, Detroit, Mich.) in 100×15 mm plates containing 20 mL SDA. Pure cultures were obtained from individual colonies on these plates as needed. Cultures were maintained on SDA plates in a 27° C. incubator without light until used.
Filter paper disks (Whatman #1, 1.5 cm) were treated with naphthalene, butylated hydroxytoluene (BHT), dioctyl phthalate, or adipic dioctyl ester, at rates of 2 μg, 20 μg, or 200 μg, dissolved in 100 μL hexane. Controls were treated with hexane alone. For each treatment, just prior to testing for antifungal properties, 1 mL of the hexane solution and ten filter paper disks were placed in a vial, and N2 was used to evaporate the hexane.
A suspension was prepared by scraping Mucor conidia (spores) from the culture plates, and mixing into distilled, deionized water with a Pasteur pipette. A thin layer of this suspension was spread over the surface of each of 130 SDA plates by placing each plate onto an inoculation turntable (Fisher Scientific, Hampton, N.H.), pipetting 0.2 mL of the suspension into the center of the plate, spinning the turntable, and spreading the suspension onto the agar with a bent glass rod. The plates were allowed to dry for two hours. A treated filter paper disk was then placed in the center of each plate (10 plates/treatment), and the plates were incubated at 27° C. The extent to which each filter paper disk was covered by fungus was determined by visual inspection (by the method described in greater detail below) after four, five, and six days.
as §1, §2

[5] = tested on: imported red fire ant, Solenopsis invicta Buren; assay: Effect of naphthalene on ants (tolerance comparison); type: in vivo; conditions: naphthalene concentrations causing no visible effect on termites
[6] = tested on: Formosan termites; assay: Feeding bioassay; type: in vivo, Coptotermes formosanus; conditions: ergosterol standard
Experimental: Sterols identified include 3-β-dihydrocholesterol; (24s)-stigmast-5-en-3-ol; and methyl(3-β,5-α)ergostan-3-ol. […] The bioassay was conducted according to the general procedures of U.S. application Ser. No. 08/243,950, filed May 17, 1994.

[7] = tested on: ants; assay: Killing of ants; conditions: in vivo
[8] = trial 3, 0 μg disk (hexane only) on the same sealed plate as the compound's treated disks
[9] = trial 2, 0 μg disk (hexane only) on the same sealed plate as the compound's treated disks

SMILES	Fraction Covered, Day 3 (mean percentage of filter paper disk surface covered by fungus) [2, 8] [%]	Fraction Covered, Day 4 (mean percentage of filter paper disk surface covered by fungus) [2, 8] [%]	Fraction Covered, Day 5 (mean percentage of filter paper disk surface covered by fungus) [2, 8] [%]	Fraction Covered, Day 3 (mean percentage of filter paper disk surface covered by fungus) ([2]; trial 3, rate 200 μg per disk) [%]	Fraction Covered, Day 4 (mean percentage of filter paper disk surface covered by fungus) ([2]; trial 3, rate 200 μg per disk) [%]	Fraction Covered, Day 5 (mean percentage of filter paper disk surface covered by fungus) ([2]; trial 3, rate 200 μg per disk) [%]	Fraction Covered, Day 3 (mean percentage of filter paper disk surface covered by fungus) ([2]; trial 3, rate 600 μg per disk) [%]	Fraction Covered, Day 4 (mean percentage of filter paper disk surface covered by fungus) ([2]; trial 3, rate 600 μg per disk) [%]	Fraction Covered, Day 5 (mean percentage of filter paper disk surface covered by fungus) ([2]; trial 3, rate 600 μg per disk) [%]	Fraction Covered, Day 3 (mean percentage of filter paper disk surface covered by fungus) ([2]; trial 3, rate 1000 μg per disk) [%]	Fraction Covered, Day 4 (mean percentage of filter paper disk surface covered by fungus) ([2]; trial 3, rate 1000 μg per disk) [%]	Fraction Covered, Day 5 (mean percentage of filter paper disk surface covered by fungus) ([2]; trial 3, rate 1000 μg per disk) [%]	Fraction Covered, Day 3 (mean percentage of filter paper disk surface covered by fungus) [3, 9] [%]	Fraction Covered, Day 4 (mean percentage of filter paper disk surface covered by fungus) [3, 9] [%]	Fraction Covered, Day 5 (mean percentage of filter paper disk surface covered by fungus) [3, 9] [%]	Fraction Covered, Day 3 (mean percentage of filter paper disk surface covered by fungus) ([3]; trial 2, rate 2 μg per disk) [%]	Fraction Covered, Day 4 (mean percentage of filter paper disk surface covered by fungus) ([3]; trial 2, rate 2 μg per disk) [%]	Fraction Covered, Day 5 (mean percentage of filter paper disk surface covered by fungus) ([3]; trial 2, rate 2 μg per disk) [%]	Fraction Covered, Day 3 (mean percentage of filter paper disk surface covered by fungus) ([3]; trial 2, rate 20 μg per disk) [%]	Fraction Covered, Day 4 (mean percentage of filter paper disk surface covered by fungus) ([3]; trial 2, rate 20 μg per disk) [%]	further results
c1ccc2ccccc2c1 [Naphthalene, naphthalene]	0	0	0	0	0	0	0	0	0	0	0	0	98	99	95	100	99	100	98	98	Tolerance of C. formosanus to naphthalene compared with S. invicta [1]: significantly higher tolerance; Visible effect on termites [1]: no visible effect; Inhibition of growth of the fungus, comparison among compounds ([2]; of the five compounds tested): most effective at inhibiting the growth of this fungus; Fungal growth on filter paper disks ([2]; trial 3, all naphthalene treatments (0-1000 μg)): no fungal growth; Fungal growth on treated disks ([2]; trial 3, eight days after treatment): still free of fungus; Fungal growth on treated disks ([2]; trial 3, fourth day): still no growth; Fraction Covered, Day 5 (mean percentage of filter paper disk surface covered by fungus) ([3]; trial 2, rate 20 μg per disk): 99%; Fraction Covered, Day 3 (mean percentage of filter paper disk surface covered by fungus) ([3]; trial 2, rate 200 μg per disk): 100%; Fraction Covered, Day 4 (mean percentage of filter paper disk surface covered by fungus) ([3]; trial 2, rate 200 μg per disk): 100%; Fraction Covered, Day 5 (mean percentage of filter paper disk surface covered by fungus) ([3]; trial 2, rate 200 μg per disk): 100%; Fraction Covered, Day 4 (mean percentage of filter paper disk surface covered by fungus) ([4]; trial 1, rate 2 μg per disk): 71%; Fraction Covered, Day 5 (mean percentage of filter paper disk surface covered by fungus) ([4]; trial 1, rate 2 μg per disk): 86%; Fraction covered, Day 6 (mean percentage of filter paper disk surface covered by fungus) ([4]; trial 1, rate 2 μg per disk): 98%; Fraction Covered, Day 4 (mean percentage of filter paper disk surface covered by fungus) ([4]; trial 1, rate 20 μg per disk): 64%; Fraction Covered, Day 5 (mean percentage of filter paper disk surface covered by fungus) ([4]; trial 1, rate 20 μg per disk): 97%; Fraction covered, Day 6 (mean percentage of filter paper disk surface covered by fungus) ([4]; trial 1, rate 20 μg per disk): 100%; Fraction Covered, Day 4 (mean percentage of filter paper disk surface covered by fungus) ([4]; trial 1, rate 200 μg per disk): 90%; Fraction Covered, Day 5 (mean percentage of filter paper disk surface covered by fungus) ([4]; trial 1, rate 200 μg per disk): 92%; Fraction covered, Day 6 (mean percentage of filter paper disk surface covered by fungus) ([4]; trial 1, rate 200 μg per disk): 100%; Effect on ants [5]: paralyzed
CC(C)[C@@H](C)/C=C/[C@@H](C)[C@H]1CC[C@H]2C3=CC=C4C[C@@H](O)CC[C@]4(C)[C@H]3CC[C@]12C [ergosterol]																					Feeding stimulation [6]: stimulated the feeding
Cc1cc(C(C)(C)C)c(O)c(C(C)(C)C)c1 [BHT, butylated hydroxytoluene]	59	100	100	30	96	95	53	97	100	16	99	100	93	94	96	85	90	90	93	95	Effectiveness at killing ants compared with naphthalene [7]: even more effective than naphthalene at killing ants; Fungal coverage of treated disks ([2]; trial 3, fourth day): ~100%; Coverage of filter paper versus the DBP or naphthalene treatments ([2]; trial 3, three days after treatment, P=0.0001): significantly greater; Fraction Covered, Day 5 (mean percentage of filter paper disk surface covered by fungus) ([3]; trial 2, rate 20 μg per disk): 98%; Fraction Covered, Day 3 (mean percentage of filter paper disk surface covered by fungus) ([3]; trial 2, rate 200 μg per disk): 95%; Fraction Covered, Day 4 (mean percentage of filter paper disk surface covered by fungus) ([3]; trial 2, rate 200 μg per disk): 99%; Fraction Covered, Day 5 (mean percentage of filter paper disk surface covered by fungus) ([3]; trial 2, rate 200 μg per disk): 100%; Fraction Covered, Day 4 (mean percentage of filter paper disk surface covered by fungus) ([4]; trial 1, rate 2 μg per disk): 70%; Fraction Covered, Day 5 (mean percentage of filter paper disk surface covered by fungus) ([4]; trial 1, rate 2 μg per disk): 85%; Fraction covered, Day 6 (mean percentage of filter paper disk surface covered by fungus) ([4]; trial 1, rate 2 μg per disk): 92%; Fraction Covered, Day 4 (mean percentage of filter paper disk surface covered by fungus) ([4]; trial 1, rate 20 μg per disk): 27%; Fraction Covered, Day 5 (mean percentage of filter paper disk surface covered by fungus) ([4]; trial 1, rate 20 μg per disk): 65%; Fraction covered, Day 6 (mean percentage of filter paper disk surface covered by fungus) ([4]; trial 1, rate 20 μg per disk): 76%; Fraction Covered, Day 4 (mean percentage of filter paper disk surface covered by fungus) ([4]; trial 1, rate 200 μg per disk): 28%; Fraction Covered, Day 5 (mean percentage of filter paper disk surface covered by fungus) ([4]; trial 1, rate 200 μg per disk): 56%; Fraction covered, Day 6 (mean percentage of filter paper disk surface covered by fungus) ([4]; trial 1, rate 200 μg per disk): 93%
